Results on seven molecules are retold here after ChEMBL document CHEMBL3045937, “Synthesis and hypoglycemic activity evaluation of 7-alkoxyl-rhein” (2012).

For experiment [1], the species on record is Homo sapiens. The experiment can be described thus: Inhibition of alpha-glucoamylase (unknown origin) assessed as 1-Ki/Kc X 100% at 100 mg/l after 10 min spectrophotometry.
Experiment [2] can be described thus: Inhibition of alpha-glucoamylase (unknown origin) assessed as Ki/Kc at 100 mg/l after 10 min spectrophotometry; values are per cent of control. Particulars: Homo sapiens.
Experiment [3] concerns Mus musculus. The experiment can be described thus: Hypoglycemic activity in alloxan-induced diabetic Mus musculus (mouse) assessed as blood glucose level at 10 mg/kg, qd for 14 days measured on 7th day (reference value: 19.79 +/- 1.28 mmol/l). It is filed as functional.
The subject of experiment [4] is Mus musculus. Kind of experiment: Hypoglycemic activity in alloxan-induced diabetic Mus musculus (mouse) assessed as blood glucose level at 10 mg/kg, qd for 14 days measured on 14th day (reference value: 19.04 +/- 1.27 mmol/l). It counts as functional.
In experiment [5] the test system is Mus musculus. The experiment can be described thus: Hypoglycemic activity in alloxan-induced diabetic Mus musculus (mouse) assessed as blood glucose level at 50 mg/kg, qd for 14 days measured on 7th day (reference value: 19.79 +/- 1.28 mmol/l). It is filed as functional.
For experiment [6], the system named is Mus musculus. The experiment can be described thus: Hypoglycemic activity in alloxan-induced diabetic Mus musculus (mouse) assessed as blood glucose level at 50 mg/kg, qd for 14 days measured on 14th day (reference value: 19.04 +/- 1.27 mmol/l). It counts as functional.
Experiment [7] relates to Mus musculus. The experiment can be described thus: Hypoglycemic activity in alloxan-induced diabetic Mus musculus (mouse) assessed as blood glucose level at 20 mg/kg, qd for 14 days measured on 14th day (reference value: 19.04 +/- 1.27 mmol/l). It counts as functional.
The test system of experiment [8] is Mus musculus. Kind of experiment: Hypoglycemic activity in alloxan-induced diabetic Mus musculus (mouse) assessed as blood glucose level at 20 mg/kg, qd for 14 days measured on 7th day (reference value: 19.79 +/- 1.28 mmol/l). It counts as functional.

Usually inhibition stands for the relative decrease from the control value, in per cent. For orientation: residual activity means the share of the control activity or signal that is left under treatment. Turning to `CCCCOc1cc(O)c2c(c1)C(=O)c1cc(C(=O)O)cc(O)c1C2=O`, in experiment [1], the inhibition amounted to 45%. Also, the residual activity in experiment [2] was 55%.

With `CCCCCCCCCCCCOc1cc(O)c2c(c1)C(=O)c1cc(C(=O)O)cc(O)c1C2=O`, the inhibition in experiment [1] is 50.7%. Moreover, in experiment [2], the residual activity is 49.3%.

In the case of `CCCCCCCCCCCCCCCCOc1cc(O)c2c(c1)C(=O)c1cc(C(=O)O)cc(O)c1C2=O`, in experiment [1], the inhibition was found to be 29.8%. The residual activity in experiment [2] amounted to 70.2%.

In the case of `Cc1cc(O)c2c(c1)C(=O)c1cc(O)cc(O)c1C2=O`, the inhibition in experiment [1] was determined as 23.6%. The residual activity in experiment [2] was determined as 76.4%.

As for `CCCCCCOc1cc(O)c2c(c1)C(=O)c1cc(C(=O)O)cc(O)c1C2=O`, the inhibition in experiment [1] was found to be 54.5%. In experiment [2], the residual activity came to 45.5%.

Regarding `C[C@H]1O[C@H](O[C@H]2[C@H](O)[C@@H](O)[C@@H](O[C@H]3[C@H](O)[C@@H](O)C(O)O[C@@H]3CO)O[C@@H]2CO)[C@H](O)[C@@H](O)[C@@H]1N[C@H]1C=C(CO)[C@@H](O)[C@H](O)[C@H]1O` (some centres not stated) [ACARBOSE], the results for the Activity in experiment [3] and in experiment [4] were 10.58 mmol/L and 6.87 mmol/L, respectively. Moreover, the inhibition in experiment [1] came to 91.4%. In addition, the residual activity in experiment [2] amounted to 8.6%.

With `CCCCCCCCOc1cc(O)c2c(c1)C(=O)c1cc(C(=O)O)cc(O)c1C2=O`, the Activity in experiment [5] is on record as 10.05 mmol/L; in experiment [6], 7.03 mmol/L; in experiment [7], 10.04 mmol/L; in experiment [3], 17.05 mmol/L; in experiment [4], 12.03 mmol/L; in experiment [8], 16.79 mmol/L. Further, in experiment [1], the inhibition is 60.6%. Moreover, the residual activity in experiment [2] was found to be 39.4%.
